Assay results from patent US6855710B2, “Substituted indolines with an inhibitory effect on various kinases and complexes of CDKs” (Boehringer Ingelheim Pharma KG, priority 1998, dated 2005).

SMILES	melting point
O=C1Nc2ccc([N+](=O)[O-])cc2/C1=C(/Nc1ccc(CN2CCC(C(=O)O)CC2)cc1)c1ccccc1 [Example 177, (Z)-3-{1-[4-(4-carboxypiperidinomethyl)-phenylamino]-1-phenyl-methylidene}-5-nitro-2-indolinone]	207 °C
CN(C(=O)CCN)c1ccc(N/C(=C2\C(=O)Nc3ccccc32)c2ccccc2)cc1.Cl	97 to 99 °C
CCCCS(=O)(=O)N(CC(=O)N(C)C)c1ccc(N/C(=C2\C(=O)Nc3ccccc32)c2ccccc2)cc1 [Example 306, (Z)-3-{1-[4-(N-(dimethylaminocarbonylmethyl)-N-butylsulphonyl-amino)-phenylamino]-1-phenyl-methylidene}-2-indolinone]	121 to 123 °C
CN(C)C(=O)CN(c1ccc(N/C(=C2\C(=O)Nc3ccc([N+](=O)[O-])cc32)c2ccccc2)cc1)S(=O)(=O)c1ccccc1 [Example 209, (Z)-3-{1-[4-(N-dimethylaminocarbonylmethyl-N-phenylsulphonyl-amino)-phenylamino]-1-phenyl-methylidene}-5-nitro-2-indolinone]	160 to 162 °C
CC(=O)Nc1ccc(N/C(=C2\C(=O)Nc3ccccc32)c2ccccc2)cc1 [Example 31, (Z)-3-[1-(4-acetylamino-phenylamino]-1-phenyl-methylidene]-2-indolinone]	236 to 238 °C
CCNC(=O)Nc1ccc(N/C(=C2\C(=O)Nc3ccccc32)c2ccccc2)cc1 [Example 45, (Z)-3-[1-(4-ethylaminocarbonylamino-phenylamino)-1-phenyl-methylidene]-2-indolinone]	264 to 265 °C
CN1CCN(CCc2ccc(N/C(=C3\C(=O)Nc4ccc([N+](=O)[O-])cc43)c3ccccc3)cc2)CC1 [Example 135, (Z)-3-{1-[4-(2-(4-methylpiperazino)-ethyl)-phenylamino]-1-phenyl-methylidene}-5-nitro-2-indolinone]	238 to 240 °C
CC(=O)Nc1ccc(N/C(=C2\C(=O)Nc3ccc([N+](=O)[O-])cc32)c2ccccc2)cc1 [Example 93, (Z)-3-[1-(4-acetylamino-phenylamino)-1-phenyl-methylidene]-5-nitro-2-indolinone]	328 to 330 °C
NS(=O)(=O)c1ccc(N/C(=C2\C(=O)Nc3ccccc32)c2ccccc2)cc1 [Example 396, (Z)-3-{1-[4-(aminosulphonyl)-phenylamino]-1-phenyl-methylidene}-2-indolinone]	254 °C
COCCNC(=O)c1ccc(N/C(=C2\C(=O)Nc3ccccc32)c2ccccc2)cc1 [Example 388, (Z)-3-{1-[4-(2-methoxyethylaminocarbonyl)-phenylamino]-1-phenyl-methylidene}-2-indolinone]	277 to 279 °C
CCS(=O)(=O)N(CCCN(C)C)c1ccc(N/C(=C2\C(=O)Nc3ccccc32)c2ccccc2)cc1 [Example 316, (Z)-3-{1-[4-(N-(3-dimethylaminopropyl)-N-ethylsulphonyl-amino)-phenylamino]-1-phenyl-methylidene}-2-indolinone]	194 °C
CCS(=O)(=O)N(CCN1CCOCC1)c1ccc(N/C(=C2\C(=O)Nc3ccccc32)c2ccccc2)cc1 [Example 308, (Z)-3-{1-[4-(N-(2-morpholinoethyl)-N-ethylsulphonyl-amino)-phenylamino]-1-phenyl-methylidene}-2-indolinone]	222 to 224 °C
CCCCNC(=O)Nc1ccc(N/C(=C2\C(=O)Nc3ccccc32)c2ccccc2)cc1 [Example 46, (Z)-3-[1-(4-butylaminocarbonylamino-phenylamino)-1-phenyl-methylidene]-2-indolinone]	216 to 217 °C
CNC(=O)C1CCN(Cc2ccc(N/C(=C3\C(=O)Nc4ccc([N+](=O)[O-])cc43)c3ccccc3)cc2)CC1 [Example 248, (Z)-3-{1-[4-(4-methylaminocarbonyl-piperidinomethyl)-phenylamino]-1-phenyl-methylidene}-5-nitro-2-indolinone]	263 to 265 °C
CN(CC(=O)O)S(=O)(=O)c1ccc(N/C(=C2\C(=O)Nc3ccccc32)c2ccccc2)cc1 [Example 409, (Z)-3-{1-[4-(N-carboxymethyl-N-methyl-aminosulphonyl)-phenylamino]-1-phenyl-methylidene}-2-indolinone]	237 °C (dec.)
CC1CCN(CCc2ccc(N/C(=C3\C(=O)Nc4ccc([N+](=O)[O-])cc43)c3ccccc3)cc2)CC1 [Example 259, (Z)-3-{1-[4-(2-(4-methylpiperidino)-ethyl)-phenylamino]-1-phenyl-methylidene}-5-nitro-2-indolinone]	252 to 253 °C
Cl.NCC(=O)NCc1cccc(N/C(=C2\C(=O)Nc3ccc([N+](=O)[O-])cc32)c2ccccc2)c1	309 °C
CN1C(=O)/C(=C(\Nc2cccc(C#N)c2)c2ccccc2)c2ccccc21 [Example 73, (Z)-1-methyl-3-[1-(3-cyanophenylamino)-1-phenyl-methylidene]-2-indolinone]	158 to 160 °C
CCCN(CCC)Cc1ccc(N/C(=C2\C(=O)Nc3ccc([N+](=O)[O-])cc32)c2ccccc2)cc1 [Example 161, (Z)-3-[1-(4-Dipropylaminomethyl-phenylamino)-1-phenyl-methylidene]-5-nitro-2-indolinone]	160 to 162 °C
CNC(=O)CN(c1cccc(N/C(=C2\C(=O)Nc3ccccc32)c2ccccc2)c1)S(C)(=O)=O [Example 320, (Z)-3-{1-[3-(N-methylaminocarbonylmethyl-N-methylsulphonyl-amino)-phenylamino]-1-phenyl-methylidene}-2-indolinone]	163 °C
CN(Cc1ccccc1)Cc1ccc(N/C(=C2\C(=O)Nc3ccc([N+](=O)[O-])cc32)c2ccc(Cn3ccnc3)cc2)cc1 [Example 440, (Z)-3-{1-[4-(N-benzyl-N-methyl-aminomethyl)-phenylamino]-1-[4-(imidazol-1-ylmethyl)-phenyl]-methylidene}-5-nitro-2-indolinone]	195 to 198 °C
CC(C)C(=O)N(CCN1CCOCC1)c1ccc(N/C(=C2\C(=O)Nc3ccccc32)c2ccccc2)cc1 [Example 350, (Z)-3-{1-[4-(N-(2-morpholinoethyl)-N-isopropylcarbonyl-amino)-phenylamino]-1-phenyl-methylidene}-2-indolinone]	239 °C
CC(=O)N(CC(=O)N(C)C)c1ccc(N/C(=C2\C(=O)Nc3ccccc32)c2ccccc2)cc1 [Example 355, (Z)-3-{1-[4-(N-dimethylaminocarbonylmethyl-N-acetyl-amino)-phenylamino]-1-phenyl-methylidene}-2-indolinone]	264 to 268 °C
CCN(CC)Cc1ccc(N/C(=C2\C(=O)Nc3ccc([N+](=O)[O-])cc32)c2ccccc2)cc1 [Example 159, (Z)-3-[1-(4-diethylaminomethyl-phenylamino)-1-phenyl-methylidene]-5-nitro-2-indolinone]	173 to 174 °C
CC(=O)NCCc1ccc(N/C(=C2\C(=O)Nc3ccc([N+](=O)[O-])cc32)c2ccccc2)cc1 [Example 129, (Z)-3-{1-[4-(2-acetylamino-ethyl)-phenylamino]-1-phenyl-methylidene}-5-nitro-2-indolinone]	306 to 307 °C
CNCc1ccc(N/C(=C2\C(=O)Nc3ccc([N+](=O)[O-])cc32)c2ccccc2)cc1.Cl	351 °C
